Measurements as given in US9511073B2, “Aromatic amides and uses thereof” (TAXIS Pharmaceuticals, Inc., priority 2011, dated 2016).
In brackets after ≈: the same amount, converted by molar mass.

What follows are molecules tested on Staphylococcus aureus (Isolate ID ATCC 29213) (assay: Bacterial assay: MIC by broth microdilution or agar dilution (CLSI), S. aureus ATCC 29213). Settings: Staphylococcus aureus, ATCC29213, read-out: S. aureus MIC (μg/mL) Activity Range, S. aureus (ATCC29213).
Format: cell-based
Summary of the method: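 Activity is binned (A ≤0.25 μg/mL; B >0.25–1.0; C >1.0–16; D >16 μg/mL) from MICs determined per CLSI by broth microdilution or agar dilution, on S. aureus ATCC 29213 plus an FtsZ-G196A mutant strain.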
`CN(C)C(=O)CCC(Oc1ccc(F)c(C(N)=O)c1F)c1nc(-c2ccc(C(F)(F)F)cc2)c(Br)o1` (centres unmarked) [Compound 94, 3-(1-(5-bromo-4-(4-(trifluoromethyl)phenyl)oxazol-2-yl)-4-(dimethylamino)-4-oxobutoxy)-2,6-difluorobenzamide] showed an MIC of less than 0.25 µg/mL.
In the case of `NCCC(Oc1ccc(F)c(C(N)=O)c1F)c1nc(-c2ccc(C(F)(F)F)cc2)c(Br)o1` (centres unmarked) [Compound 95, 3-(3-amino-1-(5-bromo-4-(4-(trifluoromethyl)phenyl)oxazol-2-yl)propoxy)-2,6-difluorobenzamide], the MIC is reported as greater than 16 µg/mL.
For `NC(=O)CC(Oc1ccc(F)c(C(N)=O)c1F)c1nc(-c2ccc(C(F)(F)F)cc2)c(Br)o1` (centres unmarked) [Compound 96, 3-(3-amino-1-(5-bromo-4-(4-(trifluoromethyl)phenyl)oxazol-2-yl)-3-oxopropoxy)-2,6-difluorobenzamide], the MIC was 1 to 16 µg/mL (≈ 1.87 to 29.9 µM).
`Cc1nnc(CCC(Oc2ccc(F)c(C(N)=O)c2F)c2nc(-c3ccc(C(F)(F)F)cc3)c(Br)o2)o1` (centres unmarked) [Compound 97, 3-(1-(5-bromo-4-(4-(trifluoromethyl)phenyl)oxazol-2-yl)-3-(5-methyl-1,3,4-oxadiazol-2-yl)propoxy)-2,6-difluorobenzamide] gave an MIC of 1 to 16 µg/mL (≈ 1.7 to 27.2 µM).
With `CN(C)CCC(Oc1ccc(F)c(C(N)=O)c1F)c1nc(-c2ccc(C(F)(F)F)cc2)c(Br)o1` (centres unmarked) [Compound 98, 3-(1-(5-bromo-4-(4-(trifluoromethyl)phenyl)oxazol-2-yl)-3-(dimethylamino)propoxy)-2,6-difluorobenzamide] the MIC was 1 to 16 µg/mL (≈ 1.82 to 29.2 µM).
With `NC(=O)c1c(F)ccc(OC(c2cccnc2)c2nc(-c3ccc(Cl)cc3)c(Br)o2)c1F` (centres unmarked) [Compound 99, 3-((5-bromo-4-(4-chlorophenyl)oxazol-2-yl)(pyridin-3-yl)methoxy)-2,6-difluorobenzamide] the MIC was 1 to 16 µg/mL (≈ 1.92 to 30.7 µM).
For `CC(=O)NNC(=O)CC(Oc1ccc(F)c(C(N)=O)c1F)c1nc(-c2ccc(C(F)(F)F)cc2)c(Br)o1` (centres unmarked) [Compound 100, 3-(3-(2-acetylhydrazinyl)-1-(5-bromo-4-(4-(trifluoromethyl)phenyl)oxazol-2-yl)-3-oxopropoxy)-2,6-difluorobenzamide], the MIC was 1 to 16 µg/mL (≈ 1.69 to 27.1 µM).
`NC(=O)CCC(Oc1ccc(F)c(C(N)=O)c1F)c1nc(-c2ccc(C(F)(F)F)cc2)c(Br)o1` (centres unmarked) [Compound 101, 3-(4-amino-1-(5-bromo-4-(4-(trifluoromethyl)phenyl)oxazol-2-yl)-4-oxobutoxy)-2,6-difluorobenzamide] gave an MIC of 0.25 to 1 µg/mL (≈ 0.456 to 1.82 µM).
For `C=CC(Oc1ccc(F)c(C(N)=O)c1F)c1nc(-c2ccc(C(F)(F)F)cc2)c(Br)o1` (centres unmarked) [Compound 102, 3-((1-(5-bromo-4-(4-(trifluoromethyl)phenyl)oxazol-2-yl)allyl)oxy)-2,6-difluorobenzamide], the MIC was 1 to 16 µg/mL (≈ 1.99 to 31.8 µM).
`COCC(Oc1ccc(F)c(C(N)=O)c1F)c1nc(-c2ccc(C(F)(F)F)cc2)c(Br)o1` (centres unmarked) [Compound 103, 3-(1-(5-bromo-4-(4-(trifluoromethyl)phenyl)oxazol-2-yl)-2-methoxyethoxy)-2,6-difluorobenzamide] gave an MIC of 0.25 to 1 µg/mL (≈ 0.48 to 1.92 µM).
`C=CCC(Oc1ccc(F)c(C(N)=O)c1F)c1nc(-c2ccc(Cl)cc2)c(Br)o1` (centres unmarked) [Compound 104, 3-((1-(5-bromo-4-(4-chlorophenyl)oxazol-2-yl)but-3-en-1-yl)oxy)-2,6-difluorobenzamide] gave an MIC of 1 to 16 µg/mL (≈ 2.07 to 33.1 µM).
Molecule `NC(=O)c1c(F)ccc(OC(COC2CCCCO2)c2nc(-c3ccc(C(F)(F)F)cc3)c(Br)o2)c1F` (centres unmarked) [Compound 105, 3-(1-(5-bromo-4-(4-(trifluoromethyl)phenyl)oxazol-2-yl)-2-((tetrahydro-2H-pyran-2-yl)oxy)ethoxy)-2,6-difluorobenzamide] has an MIC of 0.25 to 1 µg/mL (≈ 0.423 to 1.69 µM).
Work on `C=CCC(Oc1ccc(F)c(C(N)=O)c1F)c1nc(-c2ccc(C(F)(F)F)cc2)c(Br)o1` (centres unmarked) [Compound 106, 3-((1-(5-bromo-4-(4-(trifluoromethyl)phenyl)oxazol-2-yl)but-3-en-1-yl)oxy)-2,6-difluorobenzamide] yielded an MIC of 1 to 16 µg/mL (≈ 1.93 to 30.9 µM).
`CN(C)C(=O)OCC(Oc1ccc(F)c(C(N)=O)c1F)c1nc(-c2ccc(C(F)(F)F)cc2)c(Br)o1` (centres unmarked) [Compound 107, 2-(5-bromo-4-(4-(trifluoromethyl)phenyl)oxazol-2-yl)-2-(3-carbamoyl-2,4-difluorophenoxy)ethyl dimethylcarbamate] showed an MIC of less than 0.25 µg/mL.
With `COc1cccc(-c2nc(C(COC(C)=O)Oc3ccc(F)c(C(N)=O)c3F)oc2Br)c1` (centres unmarked) [Compound 108, 2-(5-bromo-4-(3-methoxyphenyl)oxazol-2-yl)-2-(3-carbamoyl-2,4-difluorophenoxy)ethyl acetate] the MIC was greater than 16 µg/mL.
In the case of `NC(=O)c1c(F)ccc(OC(CO)c2nc(-c3ccc(O)cc3)c(Br)o2)c1F` (centres unmarked) [Compound 110, 3-(1-(5-bromo-4-(4-hydroxyphenyl)oxazol-2-yl)-2-hydroxyethoxy)-2,6-difluorobenzamide], the MIC is reported as greater than 16 µg/mL.
For `COc1ccc(-c2nc(C(COC(C)=O)Oc3ccc(F)c(C(N)=O)c3F)oc2Br)cc1` (centres unmarked) [Compound 111, 2-(5-bromo-4-(4-methoxyphenyl)oxazol-2-yl)-2-(3-carbamoyl-2,4-difluorophenoxy)ethyl acetate], the MIC was 1 to 16 µg/mL.
`COc1ccc(-c2nc(C(CO)Oc3ccc(F)c(C(N)=O)c3F)oc2Br)cc1` (centres unmarked) [Compound 112, 3-(1-(5-bromo-4-(4-methoxyphenyl)oxazol-2-yl)-2-hydroxyethoxy)-2,6-difluorobenzamide] was tested, and the MIC was 1 to 16 µg/mL (≈ 2.13 to 34.1 µM).
Work on `CNC(=O)OCC(Oc1ccc(F)c(C(N)=O)c1F)c1nc(-c2ccc(C(F)(F)F)cc2)c(Br)o1` (centres unmarked) [Compound 113, 2-(5-bromo-4-(4-(trifluoromethyl)phenyl)oxazol-2-yl)-2-(3-carbamoyl-2,4-difluorophenoxy)ethyl methylcarbamate] yielded an MIC of 0.25 to 1 µg/mL (≈ 0.443 to 1.77 µM).
Work on `NC(=O)c1c(F)ccc(OC(Cn2ccnc2)c2nc(-c3ccc(C(F)(F)F)cc3)c(Br)o2)c1F` (centres unmarked) [Compound 114, 3-(1-(5-bromo-4-(4-(trifluoromethyl)phenyl)oxazol-2-yl)-2-(1H-imidazol-1-yl)ethoxy)-2,6-difluorobenzamide] yielded an MIC of 1 to 16 µg/mL (≈ 1.79 to 28.7 µM).
`CC(=O)OCC(Oc1ccc(F)c(C(N)=O)c1F)c1nc(-c2ccc(OC(F)(F)F)cc2)c(Br)o1` (centres unmarked) [Compound 115, 2-(5-bromo-4-(4-(trifluoromethoxy)phenyl)oxazol-2-yl)-2-(3-carbamoyl-2,4-difluorophenoxy)ethyl acetate] showed an MIC of less than 0.25 µg/mL.
With `NC(=O)c1c(F)ccc(OC(CO)c2nc(-c3ccc(OC(F)(F)F)cc3)c(Br)o2)c1F` (centres unmarked) [Compound 116, 3-(1-(5-bromo-4-(4-(trifluoromethoxy)phenyl)oxazol-2-yl)-2-hydroxyethoxy)-2,6-difluorobenzamide] the MIC was less than 0.25 µg/mL.
`COc1cccc(-c2nc(C(CO)Oc3ccc(F)c(C(N)=O)c3F)oc2Br)c1` (centres unmarked) [Compound 117, 3-(1-(5-bromo-4-(3-methoxyphenyl)oxazol-2-yl)-2-hydroxyethoxy)-2,6-difluorobenzamide] was tested, and the MIC was greater than 16 µg/mL.
With `NC(=O)c1c(F)ccc(OC(CO)c2nc(-c3cccc(O)c3)c(Br)o2)c1F` (centres unmarked) [Compound 118, 3-(1-(5-bromo-4-(3-hydroxyphenyl)oxazol-2-yl)-2-hydroxyethoxy)-2,6-difluorobenzamide] the MIC was greater than 16 µg/mL.
In the case of `CCOC(=O)C(CC(Oc1ccc(F)c(C(N)=O)c1F)c1nc(-c2ccc(C(F)(F)F)cc2)c(Br)o1)C(=O)OCC` (centres unmarked) [Compound 119, diethyl 2-(2-(5-bromo-4-(4-(trifluoromethyl)phenyl)oxazol-2-yl)-2-(3-carbamoyl-2,4-difluorophenoxy)ethyl)malonate], the MIC is reported as greater than 16 µg/mL.
Work on `Cc1nnc(CC(Oc2ccc(F)c(C(N)=O)c2F)c2nc(-c3ccc(C(F)(F)F)cc3)c(Br)o2)o1` (centres unmarked) [Compound 120, 3-(1-(5-bromo-4-(4-(trifluoromethyl)phenyl)oxazol-2-yl)-2-(5-methyl-1,3,4-oxadiazol-2-yl)ethoxy)-2,6-difluorobenzamide] yielded an MIC of 1 to 16 µg/mL (≈ 1.74 to 27.9 µM).
`CCC(Oc1ccc(F)c(C(N)=O)c1F)c1nc(CCOC(C)=O)oc1Br` (centres unmarked) [Compound 121, 2-(5-bromo-4-(1-(3-carbamoyl-2,4-difluorophenoxy)propyl)oxazol-2-yl)ethyl acetate] showed an MIC greater than 16 µg/mL.
Work on `CCC(Oc1ccc(F)c(C(N)=O)c1F)c1nc(CCO)oc1Br` (centres unmarked) [Compound 122, 3-(1-(5-bromo-2-(2-hydroxyethyl)oxazol-4-yl)propoxy)-2,6-difluorobenzamide] yielded an MIC greater than 16 µg/mL.
`CC(Oc1ccc(F)c(C(N)=O)c1F)c1nc(Br)c(-c2ccc(C(F)(F)F)cc2)o1` (centres unmarked) [Compound 123] was tested, and the MIC was 1 to 16 µg/mL (≈ 2.04 to 32.6 µM).
For `C=CCCC(Oc1ccc(F)c(C(N)=O)c1F)c1nc(-c2ccc(C(F)(F)F)cc2)c(Br)o1` (centres unmarked) [Compound 124, 3-((1-(5-bromo-4-(4-(trifluoromethyl)phenyl)oxazol-2-yl)pent-4-en-1-yl)oxy)-2,6-difluorobenzamide], the MIC was 1 to 16 µg/mL (≈ 1.88 to 30.1 µM).
`CCOC(=O)C(Oc1ccc(F)c(C(N)=O)c1F)c1csc(-c2ccc(C(F)(F)F)cc2)n1` (centres unmarked) [Compound 125, ethyl 2-(3-carbamoyl-2,4-difluorophenoxy)-2-(2-(4-(trifluoromethyl)phenyl)thiazol-4-yl)acetate] gave an MIC of 0.25 to 1 µg/mL (≈ 0.514 to 2.06 µM).
For `NC(=O)c1c(F)ccc(OC(CO)c2csc(-c3ccc(C(F)(F)F)cc3)n2)c1F` (centres unmarked) [Compound 126, 2,6-difluoro-3-(2-hydroxy-1-(2-(4-(trifluoromethyl)phenyl)thiazol-4-yl)ethoxy)benzamide], the MIC was 1 to 16 µg/mL (≈ 2.25 to 36 µM).
`NC(=O)c1c(F)ccc(OC(C(=O)O)c2csc(-c3ccc(C(F)(F)F)cc3)n2)c1F` (centres unmarked) [Compound 127, 2-(3-carbamoyl-2,4-difluorophenoxy)-2-(2-(4-(trifluoromethyl)phenyl)thiazol-4-yl)acetic acid] showed an MIC greater than 16 µg/mL.
Molecule `CCOC(=O)C(Oc1ccc(F)c(C(N)=O)c1F)c1coc(-c2ccc(C(F)(F)F)cc2)n1` (centres unmarked) [Compound 129, ethyl 2-(3-carbamoyl-2,4-difluorophenoxy)-2-(2-(4-(trifluoromethyl)phenyl)oxazol-4-yl)acetate] has an MIC of 1 to 16 µg/mL (≈ 2.13 to 34 µM).
In the case of `CC(=O)OCC(Oc1ccc(F)c(C(N)=O)c1F)c1nc(-c2ccc(C(F)(F)F)cc2)sc1Br` (centres unmarked) [Compound 130, 2-(5-bromo-2-(4-(trifluoromethyl)phenyl)thiazol-4-yl)-2-(3-carbamoyl-2,4-difluorophenoxy)ethyl acetate], the MIC is reported as greater than 16 µg/mL.
